From the NIST ThermoML archive (doi:10.1021/je060501l)
± gives the expanded uncertainty stated by the source.

Conditions: Liquid

Compound | vapor or sublimation pressure (273.15 K) [kPa] | vapor or sublimation pressure (283.15 K) [kPa] | vapor or sublimation pressure (293.15 K) [kPa] | vapor or sublimation pressure (303.15 K) [kPa] | vapor or sublimation pressure (313.15 K) [kPa]
CC(F)F [1,1-difluoroethane] | 265.8 ± 8.6 | 372.8 ± 12 | 513.3 ± 16 | 689.9 ± 22 | 909.4 ± 28
CCC [propane] | 472.5 ± 15 | 633.9 ± 20 | 832.94 ± 26 | 1077 ± 34 | 1370 ± 43
